Experimental data as given in article PMC2099433, “The binding site for neohesperidin dihydrochalcone at the human sweet taste receptor” (BMC Structural Biology, 2007).
Numbering of substitutions follows the chain as printed. Where a SMILES comes first, the peptide text is derived from it.

What was measured:
[1] = biological target: T1, hTAS1R2 + hTAS1R3 V621I^2.58 (Homo sapiens, UniProt Q7RTX0+Q8TE23, V621I); test: Calcium response (FLIPR), hTAS1R3 mutant coexpressed with hTAS1R2; format: cell-based; conditions: variant V621I^2.58; for EC50: (>) EC50 not calculable because saturation is not reached; for Emax: read-out: maximal signal (% of wt)
T1 construct: expressed in transfected cells; host or cells: HEK293T cells stably expressing G16Gust44
T1 sequence (Q8TE23 20-839): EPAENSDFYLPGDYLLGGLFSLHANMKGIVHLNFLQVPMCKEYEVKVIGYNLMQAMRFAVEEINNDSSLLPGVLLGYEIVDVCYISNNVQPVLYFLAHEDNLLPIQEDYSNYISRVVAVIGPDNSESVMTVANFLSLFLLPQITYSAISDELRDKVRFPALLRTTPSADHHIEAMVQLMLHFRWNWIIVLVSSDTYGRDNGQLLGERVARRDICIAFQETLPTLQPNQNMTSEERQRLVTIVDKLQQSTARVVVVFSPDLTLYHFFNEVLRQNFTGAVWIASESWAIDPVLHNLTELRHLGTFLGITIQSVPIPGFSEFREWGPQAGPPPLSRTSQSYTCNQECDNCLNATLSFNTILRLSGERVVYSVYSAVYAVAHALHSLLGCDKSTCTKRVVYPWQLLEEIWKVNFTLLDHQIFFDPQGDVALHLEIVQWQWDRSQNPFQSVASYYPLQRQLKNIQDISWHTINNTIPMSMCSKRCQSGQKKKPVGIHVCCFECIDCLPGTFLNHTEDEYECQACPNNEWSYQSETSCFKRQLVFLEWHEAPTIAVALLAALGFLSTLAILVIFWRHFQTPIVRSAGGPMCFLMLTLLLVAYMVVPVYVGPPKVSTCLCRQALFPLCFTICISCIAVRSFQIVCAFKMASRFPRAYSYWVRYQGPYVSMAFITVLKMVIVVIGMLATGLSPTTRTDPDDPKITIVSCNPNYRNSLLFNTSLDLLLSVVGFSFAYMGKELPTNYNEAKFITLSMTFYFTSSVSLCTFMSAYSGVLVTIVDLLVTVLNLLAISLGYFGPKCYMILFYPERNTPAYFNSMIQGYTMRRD
T1 sequence (Q7RTX0 21-852 V621I): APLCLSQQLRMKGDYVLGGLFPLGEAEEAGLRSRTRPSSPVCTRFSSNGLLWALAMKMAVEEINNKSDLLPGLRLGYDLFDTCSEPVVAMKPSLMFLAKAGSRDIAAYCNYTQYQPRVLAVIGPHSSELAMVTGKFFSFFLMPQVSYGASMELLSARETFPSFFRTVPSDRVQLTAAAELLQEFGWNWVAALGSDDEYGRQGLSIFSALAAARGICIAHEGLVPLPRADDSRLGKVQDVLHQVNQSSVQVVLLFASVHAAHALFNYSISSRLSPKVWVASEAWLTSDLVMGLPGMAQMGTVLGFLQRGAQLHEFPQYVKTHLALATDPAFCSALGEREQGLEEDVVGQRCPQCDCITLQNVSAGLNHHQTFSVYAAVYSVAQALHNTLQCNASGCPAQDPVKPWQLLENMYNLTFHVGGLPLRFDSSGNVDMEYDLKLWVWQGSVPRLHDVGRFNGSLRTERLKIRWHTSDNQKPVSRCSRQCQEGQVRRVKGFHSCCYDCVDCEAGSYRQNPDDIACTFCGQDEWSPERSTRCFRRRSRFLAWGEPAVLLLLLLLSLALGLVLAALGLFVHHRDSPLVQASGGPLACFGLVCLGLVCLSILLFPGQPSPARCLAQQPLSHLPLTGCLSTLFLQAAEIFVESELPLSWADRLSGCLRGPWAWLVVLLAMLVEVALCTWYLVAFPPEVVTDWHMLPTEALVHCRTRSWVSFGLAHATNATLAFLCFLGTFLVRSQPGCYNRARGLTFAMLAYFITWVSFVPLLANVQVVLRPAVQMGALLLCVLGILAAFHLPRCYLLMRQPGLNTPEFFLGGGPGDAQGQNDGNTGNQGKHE
How it was run: (§1)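 Each mutant receptor pair was expressed transiently in G16Gust44-expressing HEK293T cells; stimuli dissolved in C1 solution triggered calcium responses, recorded by fluorometric imaging and scaled to baseline fluorescence (ΔF/F) after mock correction, from at least three experiments run in duplicate.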

[2] = biological target: T2, hTAS1R2 + hTAS1R3 R790Q^ex3 (Homo sapiens, UniProt Q7RTX0+Q8TE23, R790Q); test: as above; format: cell-based; conditions: variant R790Q^ex3; for Emax: read-out: maximal signal (% of wt)
T2 construct: expressed in transfected cells; host or cells: HEK293T cells stably expressing G16Gust44
T2 sequence (Q8TE23 20-839): T1 sequence (Q8TE23 20-839)
T2 sequence (Q7RTX0 21-852 R790Q): T1 sequence (Q7RTX0 21-852 V621I) with I601V, R770Q
How it was run: as §1

Row | Compound | EC50 [1] [µM] | Emax [1] [%] | EC50 [2] [µM] | Emax [2] [%]
1 | COc1ccc(CCC(=O)c2c(O)cc(O[C@@H]3O[C@H](CO)[C@@H](O)[C@H](O)[C@H]3O[C@@H]3O[C@@H](C)[C@H](O)[C@@H](O)[C@H]3O)cc2O)cc1O [NHDC, neohesperidin dihydrochalcone] | > 1000 | 60 ± 14 | 100 ± 60 | 77 ± 15
2 | COC(=O)[C@H](Cc1ccccc1)NC(=O)[C@@H](N)CC(=O)O [aspartame] (HELM PEPTIDE1{D.F.[CO[*:1]]}$$$$V2.0) | 1900 ± 400 | 61 ± 1 | 900 ± 400 | 71 ± 30
